One block for each molecule: values may come before it.
What was measured:
[1] = test system: E-FABP (epidermal fatty acid-binding protein) of keratinocytes; conditions: Siegenthaler, G. et al. (1994) Biochem. J. 302, 363-371; cited from earlier work
[2] = biological target: T1, arachidonic acid-binding heteromer (non-covalent complex of two MRP8 sub-units, SEQ ID NOs: 1-2, and one MRP14 sub-unit, SEQ ID NOs: 3-4; approx. 34 kDa), isola (Homo sapiens, UniProt P05109+P06702); experiment: binding of radiolabelled ligand to heteromer by gel filtration (Superose 12, HPLC)
T1 construct: conventional steps of protein extraction from biological tissues, more specifically from skin tissues; from tissue; host or cells: psoriasis scales (human keratinocytes), membrane pellet extracted with KCl buffer
T1 sequence (P05109 1-93) 1: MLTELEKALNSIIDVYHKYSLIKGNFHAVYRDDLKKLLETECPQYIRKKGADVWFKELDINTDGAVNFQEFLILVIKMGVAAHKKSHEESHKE
T1 sequence (P05109 1-93) 2: T1 sequence (P05109 1-93) 1
T1 sequence (P06702 2-114 limits assumed): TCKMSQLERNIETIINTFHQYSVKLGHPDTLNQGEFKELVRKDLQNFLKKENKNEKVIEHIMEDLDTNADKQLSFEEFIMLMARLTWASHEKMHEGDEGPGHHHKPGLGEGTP
Protocol: Indeed, when a determined quantity of heteromer in solution is incubated in the presence of 600 nM of radiolabelled arachidonic acid, then analyzed through a filtration column over gel [(Superose 12) balanced with a Tris/HCl buffer containing 0.2M NaCl and connected to a HPLC], the radioactive peak that co-elutes elutes at 34 kDa and corresponds to the radiolabelled arachidonic acid-heteromer complex is 1.5 times greater than if the experiment were performed in the same conditions, but with 600 nM of radiolabelled oleic acid.
(§1) More particularly, this heteromer consists of two MRP8 sub-units and one MRP14 sub-unit. These two proteins, MRP8 and MRP14, are in particular described in the Odink et al., (1987) Nature 330, 80-82 publication.
(§2) The purification process of the heteromer that is implemented consists specifically of the following steps: approximately 5 g of psoriasis scales are homogenized in 15 ml of Tris/HCl buffer using a homogenizer (Polytron) then, the mixture is centrifuged at 100000 g for 1 hour at 4° C. The pellet is collected and suspended in 5 ml of the same buffer and centrifuged at 10000 g. The supernatant is eliminated. This washing operation is carried out two more times. […]

[3] = biological target: T2, arachidonic acid-binding heteromer (non-covalent complex of two MRP8 sub-units, SEQ ID NOs: 1-2, and one MRP14 sub-unit, SEQ ID NOs: 3-4) (Homo sapiens, UniProt P05109+P06702); experiment: binding of linoleic acid to the heteromer (method not given)
T2 construct: no tag
T2 sequence (P05109 1-93): T1 sequence (P05109 1-93) 1
T2 sequence (P06702 1-114): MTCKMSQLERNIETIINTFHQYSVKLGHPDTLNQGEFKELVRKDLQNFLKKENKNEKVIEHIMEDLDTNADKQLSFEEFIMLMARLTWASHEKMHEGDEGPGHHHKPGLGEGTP

[4] = biological target: T1, arachidonic acid-binding heteromer (non-covalent complex of two MRP8 sub-units, SEQ ID NOs: 1-2, and one MRP14 sub-unit, SEQ ID NOs: 3-4; approx. 34 kDa), isola; experiment: dissociation constant by carbon-dextran technique with radiolabelled ligand, Scatchard plot; conditions: comparison with E-FABP (Siegenthaler et al. 1994)
Protocol: These dissociation constants are obtained by carrying out measurements using the carbon-dextran technique. This technique is as follows: aliquot portions of 0.5 μg of heteromer in solution in 100 μl of Tris buffer (50 mM Tris/HCl, 25 mM NaCl, 2.5 mM EDTA, 1 mM DTT at pH 7.5) containing 0.5% of gelatin and 1% of DMSO are incubated for 1 hour at 37° C. in the presence of increasing quantities of radiolabelled ligand, i.e, 0-10 μM for the oleic acid and the arachidonic acid. Then, each aliquot portion is treated with 50 μl a mixture of carbon-dextran T40® (5% and 0.05% respectively) at 0° C. for 10 minutes, then centrifuged at 10000 g and the radioactivity of the supernatant is measured. A saturation curve is established, and the Kd is calculated using the Scatchard plot.
as §1
as §2, with “eliminated.” for “eliminated. This washing operation is carried out two more times.”

[5] = biological target: T3, MRP14 (migration inhibitory factor related protein 14) (human, UniProt P06702 1-114); experiment: gel filtration (34 kDa, non-denaturing) against SDS-PAGE of the purified heteromer
T3 construct: Sub-unit of the heteromer, seen by SDS-PAGE of the purified native complex; also called MRP14 sub-unit
T3 sequence: T2 sequence (P06702 1-114)
Protocol: The fractions that co-elute with the radioactive peak are gathered, dialyzed through a 20 mM Tris/HCl buffer, pH of 8.0 and the solution is concentrated. This solution is passed through a […] ion exchange column (Resource Q) balanced with the last buffer. The elution in the form of a gradient is performed with this Tris buffer containing 0.5M of NaCl. In the same way as above, the column has been standardized and only the proteins that co-elute with the radioactive peak are gathered, dialyzed through a 100 mM sodium phosphate buffer with a pH of 7.0 and concentrated The last purification step is carried out on a filtration column (Superose 12) balanced with the phosphate buffer. The protein peak that elutes at 34 kDa corresponds to the purified heteromer.

Molecule: CCCCCCCCCCCCCCCCCC(=O)O [stearic acid]
- affinity for fatty acids (in words) [1]: strong affinity

Molecule: CC/C=C\C/C=C\C/C=C\CCCCCCCC(=O)O [linolenic acid]
- affinity for fatty acids (in words) [1]: strong affinity

Molecule: CCCCC/C=C\C/C=C\C/C=C\C/C=C\CCCC(=O)O [arachidonic acid]
- radioactive peak of ligand-heteromer complex, ratio arachidonic acid to oleic acid ([2]; 600 nM radiolabelled arachidonic acid vs 600 nM radiolabelled oleic acid, peak at 34 kDa): 1.5 times
- quantity of arachidonic acid bound relative to oleic acid ([2]; up to, general statement): up to 1.5 times
- affinity for fatty acids (in words) [1]: weak or nonexistent affinity

- binding (in words) [3]: binds
Molecule: CCCCC/C=C\C/C=C\CCCCCCCC(=O)O [linoleic acid]
- affinity for fatty acids (in words) [1]: strong affinity

Molecule: CCCCCCCC/C=C\CCCCCCCC(=O)O [oleic acid]
- dissociation constant in relation to oleic acid compared with that of E-FABP for the same ligand [4]: less than that of the E-FABP
- affinity for fatty acids (in words) [1]: strong affinity

- binding result [5]: binds
B1: MRP8 (migration inhibitory factor related protein 8) (other)
chain: T1 sequence (P05109 1-93) 1
notes: Sub-unit of the heteromer, seen by SDS-PAGE of the purified native complex; also called MRP8 sub-unit
